# Laboratory results reported in patent publication US20260273072A1, “NOVEL PLK1 DEGRADATION INDUCING COMPOUND” (UPPTHERA, INC., priority 2023, published 2026).
# Columns and labels:
# Format in all cases: cell-based
# PLK1 = molecular target: T1, PLK1 (Homo sapiens, UniProt P53350); assay: Luciferase assay for PLK1 in HeLa LgBit (Plk1-HiBit KI) cell line; settings: 300 nM compound, luminescence after 9 hours
# T1 construct: endogenous in cells; host or cells: HeLa LgBit (Plk1-HiBit KI): HeLa stably expressing LgBit, with a CRISPR/Cas9 knock-in of HiBit at the endogenous PLK1 locus
# T1 sequence (P53350 whole entry): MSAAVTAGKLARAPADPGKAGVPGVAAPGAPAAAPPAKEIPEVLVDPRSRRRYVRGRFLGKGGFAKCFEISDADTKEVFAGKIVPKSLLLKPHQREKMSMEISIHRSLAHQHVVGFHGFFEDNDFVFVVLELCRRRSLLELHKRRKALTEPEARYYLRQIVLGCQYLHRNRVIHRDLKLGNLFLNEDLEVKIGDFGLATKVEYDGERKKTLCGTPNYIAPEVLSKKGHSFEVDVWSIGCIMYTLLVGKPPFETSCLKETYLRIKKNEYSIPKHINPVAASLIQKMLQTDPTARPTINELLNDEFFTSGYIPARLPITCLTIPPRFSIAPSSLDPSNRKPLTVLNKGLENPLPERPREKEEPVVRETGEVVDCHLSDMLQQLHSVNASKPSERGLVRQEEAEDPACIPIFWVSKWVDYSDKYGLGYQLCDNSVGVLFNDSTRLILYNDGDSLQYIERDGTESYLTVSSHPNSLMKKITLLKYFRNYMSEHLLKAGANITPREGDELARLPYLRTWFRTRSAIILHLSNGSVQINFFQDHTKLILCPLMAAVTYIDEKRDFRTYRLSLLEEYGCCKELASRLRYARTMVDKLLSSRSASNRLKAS
# Description: 2. Luciferase Assay for PLK1
# (1) Preparation and Culture of HeLa LgBit (Plk1-HiBit KI) Cell Line
# A HeLa cell line in which the LgBit vector was transfected and expressed stably was prepared. Then, after constructing gRNA and donor to express the HiBit amino acid sequence behind the C-terminal of the PLK1 gene, which was inherent in the cell, it was inserted into the cell together with a vector capable of expressing CRISPR/Cas9. Only the cells in which the insertion was completed and knock-in had progressed were selected, sub-cultured and used.
# For cell culture, DMEM (Gibco), FBS (Gibco), PS (Gibco), […] cell culture dish (SPL), […] cell culture dish (SPL), 96-well culture plate (SPL), PBS pH 7.4 (Gibco), TrypLE™ Express (Gibco), Cell counter (Thermo Fisher Scientific) and 0.4% Trypan Blue Solution (DYNEBIO) were used.
# (2) Treatment of Compounds of the Present Invention and Method of Luciferase Assay
# In the case of HeLa LgBit (Plk1-HiBit KI), the compounds were treated after being released after thymidine block, and the process was as follows. Thymidine (Sigma-Aldrich) was completely dissolved in ddH2O and used in the experiment. For thymidine block, the products were treated with 2 mM of thymidine and then incubated for 24 hours. For release and chemical treatment, the medium was suctioned and washed with 1×PBS. TrypLE™ (Gibco) was added and incubated in 37° C. CO2 incubator (Thermo Fisher Scientific) for 5 mins. Cells neutralized by adding complete media were counted through a counter. For each well of a 96-well culture plate (SPL), 3.3×10^4 cells and a total medium volume of 150 μl were seeded and incubated in a CO2 incubator.
# Each cell line was incubated in a CO2 incubator for 18 hours, and Endurazine (Promega, Cat. No. N257B) was added to each well to make up 4% of the total volume. After adding compounds of Examples in a 96-well white plate (SPL) to a concentration of 300 nM, the wavelength of the plate reader (BMG Labtech, CLARIOstar Plus) was set to 470-480 nm, and then the luminescence was tracked in real time.
# In Table 2, Activity represents the ratio of the luminescence value of each Exemplary Compound treatment group to DMSO treatment group (+++: <0.3, ++: <0.5, +: <0.7).
# MRC-5 cell line = assay: Cell viability assay for MRC-5 cell line (EZ-Cytox); settings: Homo sapiens, MRC5, 120 h; MRC-5 normal cell line, 5 days, 10000 nM to 1.52 nM; read-out: Activity: IC50 value, cell viability, MRC-5 cell line (Exemplary Compounds)
# Description: 4. Cell Viability Assay for MRC-5 Cell Line
# (1) Culture of MRC-5 Cell Line
# The MRC-5 cell line was purchased from KCLB. Passage of cultured cells was maintained within P15.
# (2) Treatment of Compounds of the Present Invention
# Then, it was cultured in 37° C. CO2 incubator (Thermo Fisher Scientific) for 5 days.
# (3) Cytotoxicity Experiment
# CO2 incubator for 4 hours.
# NCI-H526 cell line = assay: Cell viability assay for NCI-H526 cell line (EZ-Cytox); settings: Homo sapiens, NCI-H526, 120 h; H526 cells, 5 days, 3000 nM to 0.46 nM
# Description: (§1) 3. Cell Viability Assay for NCI-H69, NCI-H526 Cell Lines
# (§2) (1) Culture of NCI-H69, NCI-H526 Cell Lines
# (§3) The NCI-H69 (hereafter H69) and NCI-H526 (hereafter H526) cell lines were purchased from KCLB.
# (§4) (2) Treatment of Compounds of the Present Invention and Method of Cell Viability Assay
# (§5) After treating the compound to each well to make the total volume of 200 μl, it was cultured in a CO2 incubator (Thermo Fisher Scientific) for 5 days. […] The absorbance of the completely cultured sample was measured by setting the wavelength of a plate reader (BMG Labtech) to […], and was measured after shaking for 3 minutes in a plate reader before measurement.
# (§6) The results of cell viability for H526 and H69 cell line are shown in Table 3 and Table 4, respectively.
# (§7) In Table 3 and Table 4, Activity represents IC50 value of each Exemplary Compound treatment group to H526 and H69 cell line, respectively (A: <30 nM, B: <50 nM, C: <100 nM, D: <200 nM, E: <400 nM).
# NCI-H69 cell line = assay: Cell viability assay for NCI-H69 cell line (EZ-Cytox); settings: Homo sapiens, NCI-H69, 120 h; H69 cells, 5 days, 3000 nM to 0.46 nM
# Description: as §1, §2, §3, §4, §5, §6, §7
Structure (SMILES),Activity: ratio of the luminescence value of compound treatment group to DMSO treatment group (PLK1),IC50 (MRC-5 cell line) [nM],IC50 (NCI-H526 cell line) [nM],IC50 (NCI-H69 cell line) [nM]
"COc1cc(-c2nnc(CN3CCC(CCN4CCN(c5cc(F)c(NC6CCC(=O)NC6=O)cc5F)CC4)CC3)o2)ccc1Nc1ncc2c(n1)N(C1CCCC1)CC(F)(F)C(=O)N2C (stereo not shown) [Compound 65, 3-((4-(4-(2-(1-((5-(4-((9-cyclopentyl-7,7-difluoro-5-methyl-6-oxo-6,7,8,9-tetrahydro-5H-pyrimido[4,5-b][1,4]diazepin-2-yl)amino)-3-methoxyphenyl)-1,3,4-oxadiazol-2-yl)methyl)piperidin-4-yl)ethyl)piperazin-1-yl)-2,5-difluorophenyl)amino)piperidine-2,6-dione]",++ (++: <0.5),> 10000,< 100,< 200
"COc1cc(C(=O)NC2CCN(CCC3CCN(c4ccc(NC5CCC(=O)NC5=O)c(F)c4)CC3)CC2)c(F)cc1Nc1ncc2c(n1)N(C(C)C)CC(F)(F)C(=O)N2C (stereo not shown) [Compound 37, 4-((7,7-difluoro-9-isopropyl-5-methyl-6-oxo-6,7,8,9-tetrahydro-5H-pyrimido[4,5-b][1,4]diazepin-2-yl)amino)-N-(1-(2-(1-(4-((2,6-dioxopiperidin-3-yl)amino)-3-fluorophenyl)piperidin-4-yl)ethyl)piperidin-4-yl)-2-fluoro-5-methoxybenzamide]",++ (++: <0.5),> 10000,< 50,< 100
"COc1cc(C(=O)NC2CCC(N(C)CC3CCN(c4ccc(C5CCC(=O)NC5=O)cc4C)CC3)CC2)ccc1Nc1ncc2c(n1)N(C1CCCC1)CC(F)(F)C(=O)N2C (stereo not shown) [Compound 6, 4-((9-cyclopentyl-7,7-difluoro-5-methyl-6-oxo-6,7,8,9-tetrahydro-5H-pyrimido[4,5-b][1,4]diazepin-2-yl)amino)-N-((1r,4r)-4-(((1-(4-(2,6-dioxopiperidin-3-yl)-2-methylphenyl)piperidin-4-yl)methyl)(methyl)amino)cyclohexyl)-3-methoxybenzamide]",+++ (+++: <0.3),> 10000,< 100,< 50
"COc1cc(C(=O)NC2CCN(CCC3CCN(c4ccc(NC5CCC(=O)NC5=O)cc4F)CC3)CC2)ccc1Nc1ncc2c(n1)N(C1CCCC1)CC(F)(F)C(=O)N2C (stereo not shown) [Compound 30, 4-((9-cyclopentyl-7,7-difluoro-5-methyl-6-oxo-6,7,8,9-tetrahydro-5H-pyrimido[4,5-b][1,4]diazepin-2-yl)amino)-N-(1-(2-(1-(4-((2,6-dioxopiperidin-3-yl)amino)-2-fluorophenyl)piperidin-4-yl)ethyl)piperidin-4-yl)-3-methoxybenzamide]",+++ (+++: <0.3),> 10000,< 30,< 30
"COc1cc(C(=O)NN2CCC(C3CCN(c4ccc(C5CCC(=O)NC5=O)cc4F)C3)CC2)ccc1Nc1ncc2c(n1)N(C(C)C)CC(F)(F)C(=O)N2C (stereo not shown) [Compound 2, 4-((7,7-difluoro-9-isopropyl-5-methyl-6-oxo-6,7,8,9-tetrahydro-5H-pyrimido[4,5-b][1,4]diazepin-2-yl)amino)-N-(4-(1-(4-(2,6-dioxopiperidin-3-yl)-2-fluorophenyl)pyrrolidin-3-yl)piperidin-1-yl)-3-methoxybenzamide]",++ (++: <0.5),> 10000,< 50,< 100
"COc1cc(C(=O)NC2CC3(CCN(CC4CCN(c5cc(OC)c(NC6CCC(=O)NC6=O)cc5F)CC4)CC3)C2)ncc1Nc1ncc2c(n1)N(C(C)C)CC(F)(F)C(=O)N2C (stereo not shown) [Compound 53, 5-((7,7-difluoro-9-isopropyl-5-methyl-6-oxo-6,7,8,9-tetrahydro-5H-pyrimido[4,5-b][1,4]diazepin-2-yl)amino)-N-(7-((1-(4-((2,6-dioxopiperidin-3-yl)amino)-2-fluoro-5-methoxyphenyl)piperidin-4-yl)methyl)-7-azaspiro[3.5]nonan-2-yl)-4-methoxypicolinamide]",++ (++: <0.5),> 10000,< 30,< 50
"COc1cc(C(=O)NN2CCC(CCN3CCN(c4ccc(NC5CCC(=O)NC5=O)c(OC)c4F)CC3)CC2)ccc1Nc1ncc2c(n1)N(C1CCCC1)CC(F)(F)C(=O)N2C (stereo not shown) [Compound 54, 4-((9-cyclopentyl-7,7-difluoro-5-methyl-6-oxo-6,7,8,9-tetrahydro-5H-pyrimido[4,5-b][1,4]diazepin-2-yl)amino)-N-(4-(2-(4-(4-((2,6-dioxopiperidin-3-yl)amino)-2-fluoro-3-methoxyphenyl)piperazin-1-yl)ethyl)piperidin-1-yl)-3-methoxybenzamide]",+++ (+++: <0.3),> 10000,< 30,< 30
"COc1cc(C(=O)NN2CCC(CCN3CCN(c4cc(OC)c(NC5CCC(=O)NC5=O)cc4F)CC3)CC2)ccc1Nc1ncc2c(n1)N(C(C)C)CC(F)(F)C(=O)N2C (stereo not shown) [Compound 39, 4-((7,7-difluoro-9-isopropyl-5-methyl-6-oxo-6,7,8,9-tetrahydro-5H-pyrimido[4,5-b][1,4]diazepin-2-yl)amino)-N-(4-(2-(4-(4-((2,6-dioxopiperidin-3-yl)amino)-2-fluoro-5-methoxyphenyl)piperazin-1-yl)ethyl)piperidin-1-yl)-3-methoxybenzamide]",++ (++: <0.5),> 10000,< 30,< 30
"COc1cc(C(=O)NN2CCC(CCN3CCN(c4cc(OC)c(NC5CCC(=O)NC5=O)cc4F)CC3)CC2)ncc1Nc1ncc2c(n1)N(C1CCCC1)CC(F)(F)C(=O)N2C (stereo not shown) [Compound 47, 5-((9-cyclopentyl-7,7-difluoro-5-methyl-6-oxo-6,7,8,9-tetrahydro-5H-pyrimido[4,5-b][1,4]diazepin-2-yl)amino)-N-(4-(2-(4-(4-((2,6-dioxopiperidin-3-yl)amino)-2-fluoro-5-methoxyphenyl)piperazin-1-yl)ethyl)piperidin-1-yl)-4-methoxypicolinamide]",++ (++: <0.5),> 10000,< 50,< 50
"COc1cc(C(=O)NC2CCC(N(C)CC3CCN(c4cnc(C5CCC(=O)NC5=O)cc4C)CC3)CC2)ccc1Nc1ncc2c(n1)N(C(C)C)CC(F)(F)C(=O)N2C (stereo not shown) [Compound 15, 4-((7,7-difluoro-9-isopropyl-5-methyl-6-oxo-6,7,8,9-tetrahydro-5H-pyrimido[4,5-b][1,4]diazepin-2-yl)amino)-N-((1r,4r)-4-(((1-(6-(2,6-dioxopiperidin-3-yl)-4-methylpyridin-3-yl)piperidin-4-yl)methyl)(methyl)amino)cyclohexyl)-3-methoxybenzamide]",+++ (+++: <0.3),> 10000,< 30,< 30
